The structures appear in SMILES notation. Where only a bound is given, the exact number is not on record here.

One data set concerns the target T1, CDK5/GST-p25 (Homo sapiens, UniProt Q00535).
T1 construct: The final construct, encoding for full-length human CDK5; made in house; host or cells: Sf21 insect cells (baculovirus co-infection)
Briefly: Inhibition of CDK5/GST-p25 kinase activity (ELISA with time-resolved fluorescence readout). Format: biochemical. In outline:
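The substrate, GST-Rb(773-928), was immobilised on plates and phosphorylated for 20 min at 37 °C by 2 ng/ml CDK5/GST-p25 in HEPES pH 7.2 with 10 µM ATP and 10 mM MgCl2. Both proteins were human and co-expressed in insect cells. Ser-780 phosphorylation was read by europium time-resolved fluorescence and converted to IC50.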

The target in a further data set is T2, His6-GSK-3β (Homo sapiens, UniProt P49841).
T2 construct: made in house; host or cells: Sf21 insect cells (baculovirus)
Briefly: Inhibition of His6-GSK-3β kinase activity (ELISA-based format, time-resolved fluorescence readout). Format: biochemical. Particulars: for IC50: class symbols, read-out: GSK3β IC50. In outline: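 Plate-bound recombinant GST-Rb substrate was phosphorylated for 30 min at 37° C by baculovirus-expressed His6-GSK-3β (200 ng/ml) at 20 μM ATP, 10 mM MgCl2, 2.5% DMSO. Europium time-resolved fluorescence of anti-phospho-Ser780 Rb signal gave inhibition, fitted to IC50.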

T1 sequence (Q00535 whole entry): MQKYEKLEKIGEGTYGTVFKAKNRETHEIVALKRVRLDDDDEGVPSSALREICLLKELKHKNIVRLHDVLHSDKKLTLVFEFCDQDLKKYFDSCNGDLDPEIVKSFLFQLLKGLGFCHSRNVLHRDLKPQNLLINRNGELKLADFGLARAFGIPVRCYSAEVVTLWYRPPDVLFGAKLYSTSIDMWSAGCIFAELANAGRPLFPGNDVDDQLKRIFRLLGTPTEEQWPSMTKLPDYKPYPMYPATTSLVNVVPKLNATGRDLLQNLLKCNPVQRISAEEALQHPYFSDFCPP
T1 sequence (Q15078 108-307 partner limits assumed): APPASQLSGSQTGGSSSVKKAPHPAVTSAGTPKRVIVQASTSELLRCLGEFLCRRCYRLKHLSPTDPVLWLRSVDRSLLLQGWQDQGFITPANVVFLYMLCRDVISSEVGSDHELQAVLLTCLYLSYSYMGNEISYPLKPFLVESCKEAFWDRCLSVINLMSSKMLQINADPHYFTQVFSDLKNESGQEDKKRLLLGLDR
T2 sequence (P49841 2-419): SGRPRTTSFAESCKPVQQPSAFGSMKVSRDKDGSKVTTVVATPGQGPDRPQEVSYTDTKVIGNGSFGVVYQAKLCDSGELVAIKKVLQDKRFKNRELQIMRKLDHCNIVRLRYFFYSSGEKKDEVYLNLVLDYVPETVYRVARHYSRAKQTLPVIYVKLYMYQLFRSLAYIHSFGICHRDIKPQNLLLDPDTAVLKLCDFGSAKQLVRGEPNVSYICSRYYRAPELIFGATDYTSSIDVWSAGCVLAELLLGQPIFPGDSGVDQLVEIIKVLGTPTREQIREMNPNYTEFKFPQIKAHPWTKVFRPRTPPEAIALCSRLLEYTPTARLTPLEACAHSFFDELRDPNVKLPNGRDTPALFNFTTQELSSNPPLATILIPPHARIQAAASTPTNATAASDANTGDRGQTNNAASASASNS

`CCCn1cc2c(C3C(=O)Nc4ccc(Br)cc43)nc(NCCCN)nc2n1` (stereo not drawn) [Example 199, 3-[6-(3-Amino-propylamino)-2-propyl-2H-pyrazolo [3,4-d]pyrimidin-4-yl]-5-bromo-1,3-dihydro-indol-2-one]: the melting point is > 300 °C. Further, the IC50 against CDK5/GST-p25 (class symbols) was < 300 nM. On His6-GSK-3β, the IC50 was < 300 nM.

In the case of `COCCNc1nc(C2C(=O)Nc3ccc(Br)cc32)c2cn(CC(C)C)nc2n1` (stereo not drawn) [Example 263, 5-Bromo-3-[2-isobutyl-6-(2-methoxy-ethylamino)-2H-pyrazolo[3,4-d]pyrimidin-4-yl]-1,3-dihydro-indol-2-one], the melting point lay in the range of 294 to 296.8 °C. For the same compound, on CDK5/GST-p25 (class symbols), the half-inhibitory concentration (IC50) was < 300 nM. For the same compound, the IC50 on His6-GSK-3β is < 300 nM.

As to `N#Cc1ccc2c(c1)C(c1ncnc3nn(C4CCCC4)cc13)C(=O)N2` (stereo not drawn) [Example 30, 3-(2-Cyclopentyl-2H-pyrazolo[3,4-d]pyrimidin-4-yl)-2-oxo-2,3-dihydro-1H-indole-5-carbonitrile], the melting point is > 300 °C (dec.). For the same compound, the IC50 against CDK5/GST-p25 (class symbols) was < 300 nM. Further, the half-maximal inhibitory concentration (IC50) on His6-GSK-3β was < 300 nM.

On to `CCCCCn1cc2c(C3C(=O)Nc4ccc(C#N)cc43)nc(NC)nc2n1` (stereo not drawn) [Example 294, 3-(6-Methylamino-2-pentyl-2H-pyrazolo [3,4-d]pyrimidin-4-yl)-2-oxo-2,3-dihydro-1H-indole-5-carbonitrile], for which the melting point was > 310 °C. This compound also showed an inhibition at 10 µM against CDK5/GST-p25 of 73%. For the same compound, the “GSK3β % @10 μM” value on His6-GSK-3β (@10 μM) stood at 70% @10 μM.

On to `N#Cc1ccc2c(c1)C(c1nc(OCCc3cccnc3)nc3nn(C4CCCC4)cc13)C(=O)N2` (stereo not drawn) [Example 164, 3-[2-cyclopentyl-6-(2-pyridin-3-yl-ethoxy)-2H-pyrazolo [3,4-d]pyrimidin-4-yl]-2-oxo-2,3-dihydro-1H-indole-5-carbonitrile], for which the melting point lay in the range of 302 to 304 °C. Besides, at CDK5/GST-p25 (class symbols), the IC50 was > 10000 nM. Besides, the IC50 at His6-GSK-3β was < 300 nM.

For `O=C1Nc2ccc(C(F)(F)F)cc2C1c1nc(NCCc2ccccn2)nc2nn(C3CCCC3)cc12` (stereo not drawn) [Example 247, 3-[2-Cyclopentyl-6-(2-pyridin-2-yl-ethylamino)-2H-pyrazolo[3,4-d]pyrimidin-4-yl]-5-trifluoromethyl-1,3-dihydro-indol-2-one], the melting point is > 300 °C. In addition, the concentration for half-maximal inhibition (IC50) on CDK5/GST-p25 (class symbols) is > 10000 nM. The IC50 on His6-GSK-3β was < 300 nM.

Regarding `O=C1Nc2ccccc2C1c1nc(NCCCN2CCOCC2)nc2nn(C3CCCC3)cc12` (stereo not drawn) [Example 157, 3-[2-cyclopentyl-6-(3-morpholin-4-yl-propylamino)-2H-pyrazolo[3,4-d]pyrimidin-4-yl]-1,3-dihydro-indol-2-one], the melting point lay in the range of 242 to 245 °C. Besides, the half-inhibitory concentration (IC50) against CDK5/GST-p25 (numeric bounds) is > 3000 nM. At His6-GSK-3β, the IC50 is 300 to 3000 nM.

As for `CCCn1cc2c(C3C(=O)Nc4ccc(Br)cc43)nc(NCc3cccnc3)nc2n1` (stereo not drawn) [Example 196, 5-Bromo-3-{2-propyl-6-[(pyridin-3-ylmethyl)-amino]-2H-pyrazolo[3,4-d]pyrimidin-4-yl}-1,3-dihydro-indol-2-one], the melting point was 277 to 281 °C. Moreover, the IC50 on CDK5/GST-p25 (class symbols) is < 300 nM. For the same compound, the half-inhibitory concentration (IC50) at His6-GSK-3β was < 300 nM.

Turning to `CCCCCn1cc2c(C3C(=O)Nc4ccc(C(F)(F)F)cc43)nc(NCCCN3CCOCC3)nc2n1` (stereo not drawn) [Example 290, 3-[6-(3-Morpholin-4-yl-propylamino)-2-pentyl-2H-pyrazolo[3,4-d]pyrimidin-4-yl]-5-trifluoromethyl-1,3-dihydro-indol-2-one], the melting point is 230 °C (dec.). Moreover, at 10 µM the inhibition at CDK5/GST-p25 was 73%. Also, the IC50 at His6-GSK-3β is < 300 nM.

`CCOCCn1cc2c(C3C(=O)Nc4ccc(Br)cc43)nc(NCCN3CCOCC3)nc2n1` (stereo not drawn) [Example 240, 5-Bromo-3-[2-(2-ethoxy-ethyl)-6-(2-morpholin-4-yl-ethylamino)-2H-pyrazolo [3,4-d]pyrimidin-4-yl]-1,3-dihydro-indol-2-one] had a melting point of 276 to 278 °C. Further, on CDK5/GST-p25 (class symbols), the IC50 was < 300 nM. Also, the concentration for half-maximal inhibition (IC50) at His6-GSK-3β was < 300 nM.

On to `COCCn1cc2c(C3C(=O)Nc4ccc(Br)cc43)nc(NCCN(C)C)nc2n1` (stereo not drawn) [Example 229, 5-Bromo-3-[6-(2-dimethylamino-ethylamino)-2-(2-methoxy-ethyl)-2H-pyrazolo[3,4-d]pyrimdin-4-yl]-1,3-dihydro-indol-2-one], for which the melting point is 291 to 292 °C. At CDK5/GST-p25 (class symbols), this compound displayed an IC50 of 300 to 3000 nM. Also, the IC50 at His6-GSK-3β fell in the range of 300 to 3000 nM.

Regarding `O=C1Nc2ccc(F)c(F)c2C1c1ncnc2c1cnn2C1CCCC1` (stereo not drawn) [Example 67, 3-(1-Cyclopentyl-1H-pyrazolo[3,4-d]pyrimidin-4-yl)-4,5-difluoro-1,3-dihydro-indol-2-one], the melting point is > 300 °C. In addition, the IC50 against CDK5/GST-p25 (class symbols) is > 10000 nM. For the same compound, the half-maximal inhibitory concentration (IC50) at His6-GSK-3β is > 10000 nM.

Regarding `Cn1cc2c(C3C(=O)Nc4ccc(C#N)cc43)ncnc2n1` (stereo not drawn) [Example 84, 3-(2-Methyl-2H-pyrazolo [3,4-d]pyrimidin-4-yl)-2-oxo-2,3-dihydro-1H-indole-5-carbonitrile], the melting point is > 350 °C. Moreover, the IC50 at CDK5/GST-p25 (class symbols) is < 300 nM. Also, the IC50 on His6-GSK-3β lay within 300 to 3000 nM.

For the compound `CC(C)Cn1cc2c(C3C(=O)Nc4ccc(Br)cc43)nc(NCCN(C)C)nc2n1` (stereo not drawn) [Example 268, 5-Bromo-3-[6-(2-dimethylamino-ethylamino)-2-isobutyl-2H-pyrazolo[3,4-d]pyrimidin-4-yl]-1,3-dihydro-indol-2-one], the melting point is 261 to 264.5 °C. The IC50 on CDK5/GST-p25 (class symbols) is < 300 nM. Besides, at His6-GSK-3β, the concentration for half-maximal inhibition (IC50) is < 300 nM.

As for `C=CCNc1nc(C2C(=O)Nc3ccc(C(F)(F)F)cc32)c2cn(C3CCCC3)nc2n1` (stereo not drawn) [Example 248, 3-(6-Allylamino-2-cyclopentyl-2H-pyrazolo[3,4-d]pyrimidin-4-yl)-5-trifluoromethyl-1,3-dihydro-indol-2-one], the melting point is > 300 °C. Also, the half-inhibitory concentration (IC50) against CDK5/GST-p25 (class symbols) was > 10000 nM. Moreover, the IC50 at His6-GSK-3β is < 300 nM.

`CCCn1cc2c(C3C(=O)Nc4ccc(Br)cc43)nc(NCCc3ccccn3)nc2n1` (stereo not drawn) [Example 191, 5-Bromo-3-[2-propyl-6-(2-pyridin-2-yl-ethylamino)-2H-pyrazolo [3,4-d]pyrimidin-4-yl]-1,3-dihydro-indol-2-one] registered a melting point of 283 to 291 °C. Besides, the IC50 at CDK5/GST-p25 (class symbols) was < 300 nM. The half-maximal inhibitory concentration (IC50) on His6-GSK-3β is < 300 nM.

For the compound `CCNc1nc(C2C(=O)Nc3ccc(C#N)cc32)c2cn(C3CCCC3)nc2n1` (stereo not drawn) [Example 166, 3-(2-cyclopentyl-6-ethylamino-2H-pyrazolo[3,4-d]pyrimidin-4-yl)-2-oxo-2,3-dihydro-1H-indole-5-carbonitrile], the melting point is 373 °C (dec.). Moreover, testing at 10 µM at CDK5/GST-p25 gave an inhibition of 41%. For the same compound, on His6-GSK-3β, the IC50 was < 300 nM.

On to `CCOCCn1cc2c(C3C(=O)Nc4ccc(Br)cc43)nc(NCCN(C)C)nc2n1` (stereo not drawn) [Example 237, 5-Bromo-3-[6-(2-dimethylamino-ethylamino)-2-(2-ethoxy-ethyl)2H-pyrazolo[3,4-d]pyrimidin-4-yl]-1,3-dihydro-indol-2-one], for which the melting point was 247 to 251 °C. In addition, the half-inhibitory concentration (IC50) at CDK5/GST-p25 (class symbols) is < 300 nM. Moreover, the IC50 at His6-GSK-3β is < 300 nM.

Regarding `CCCn1cc2c(C3C(=O)Nc4ccc(C#N)cc43)ncnc2n1` (stereo not drawn) [Example 96, 3-(2-propyl-1H-pyrazolo[3,4-d]pyrimidin-4-yl)-2-oxo-2,3-dihydro-1H-indole-5-carbonitrile], the melting point was > 300 °C. In addition, the IC50 on CDK5/GST-p25 (class symbols) is < 300 nM. The IC50 at His6-GSK-3β was < 300 nM.

These data come from patent publication US8354414B2, “Substituted bicyclic pyrimidines” (Cephalon, Inc, priority 2006, dated 2013).
